Structures can show the parent of a compound that is named as a salt.
How the values were obtained:
[1] = test system: S. pneumoniae S-4288; test: Antibacterial spectra (MIC), method of the Society of Chemotherapy in Japan; type: cell-based; settings: Streptococcus pneumoniae, S4288; S. pneumoniae S-4288, Gram +, 10^6 cells/ml; read-out: Minimum inhibitory concentration for growth
[2] = test system: K. pneumoniae KY6445; test: as above; type: cell-based; settings: Klebsiella pneumoniae; K. pneumoniae KY6445, Gram -, 10^6 cells/ml; read-out: Minimum inhibitory concentration for growth
[3] = test system: S. epidermidis IID866; test: as above; type: cell-based; settings: Staphylococcus epidermidis; S. epidermidis IID866, Gram +, 10^6 cells/ml; read-out: Minimum inhibitory concentration for growth
[4] = test system: E. faecalis IID682; test: as above; type: cell-based; settings: Enterococcus faecalis; E. faecalis IID682, Gram +, 10^6 cells/ml; read-out: Minimum inhibitory concentration for growth
[5] = test system: C. perfringens KYA13123; test: microbe, parasite or virus in culture; type: cell-based; settings: Clostridium perfringens, KYA13123, read-out: Minimum inhibitory concentration for growth
[6] = test system: S. aureus Smith; test: Therapeutic effect on the systemic infection of mouse; type: in vivo, ICR mice; settings: Staphylococcus aureus, po, 1 h; S. aureus Smith, 4.8x10^6 CFU/mouse intraperitoneally; drug once orally one hour later; dose at which 50% of ICR mice survive; read-out: ED50 S. aureus
Protocol: (§1) The infectious bacteria were injected intraperitoneally using five ICR mice per group. one hour later, 5 doses of drugs were administered once orally, respectively, and, from a curve of survival rate of mouse as a function of dose of drug, a dose (EDso) by which 50% of animals escape the death to heal was determined.

[7] = test system: E. coli ML 4707; test: as above; type: in vivo, ICR mice; settings: Escherichia coli, ML4707, po, 1 h; E. coli ML 4707, 8.8x10^6 CFU/mouse intraperitoneally; drug once orally one hour later; dose at which 50% of ICR mice survive; read-out: ED50 E. coli
Protocol: as §1

[8] = test system: S. pneumoniae IID552; test: Antibacterial spectra (MIC), method of the Society of Chemotherapy in Japan; type: cell-based; settings: Streptococcus pneumoniae; S. pneumoniae IID552, Gram +, 10^6 cells/ml; read-out: Minimum inhibitory concentration for growth
[9] = test system: P. vulgaris IFO3167; test: as above; type: cell-based; settings: Proteus vulgaris; P. vulgaris IFO3167, Gram -, 10^6 cells/ml; read-out: Minimum inhibitory concentration for growth
[10] = test system: P. aeruginosa IID1210; test: as above; type: cell-based; settings: Pseudomonas aeruginosa; P. aeruginosa IID1210, Gram -, 10^6 cells/ml; read-out: Minimum inhibitory concentration for growth
[11] = test system: A. anitratus IID876; test: as above; type: cell-based; settings: Acinetobacter calcoaceticus; A. anitratus IID876, Gram -, 10^6 cells/ml; read-out: Minimum inhibitory concentration for growth
[12] = test system: E. coli NIHJ JC-2; test: as above; type: cell-based; settings: Escherichia coli, NIHJJC2; E. coli NIHJ JC-2, Gram -, 10^6 cells/ml; read-out: Minimum inhibitory concentration for growth
[13] = test system: S. aureus 209P; test: as above; type: cell-based; settings: Staphylococcus aureus, Gram +, 10^6 cells/ml, read-out: Minimum inhibitory concentration for growth
[14] = test system: P. mirabilis IID994; test: as above; type: cell-based; settings: Proteus mirabilis; P. mirabilis IID994, Gram -, 10^6 cells/ml; read-out: Minimum inhibitory concentration for growth
[15] = test system: S. pyogenes S-8; test: as above; type: cell-based; settings: Streptococcus pyogenes, S8; S. pyogenes S-8, Gram +, 10^6 cells/ml; read-out: Minimum inhibitory concentration for growth
[16] = test system: S. aureus Smith; test: as above; type: cell-based; settings: Staphylococcus aureus, Gram +, 10^6 cells/ml, read-out: Minimum inhibitory concentration for growth
[17] = test system: S. sonnei IID969; test: as above; type: cell-based; settings: Shigella sonnei; S. sonnei IID969, Gram -, 10^6 cells/ml; read-out: Minimum inhibitory concentration for growth
Protocol: The antibacterial test was performed according to the method designated by Society of Chemotherapy in Japan.

[18] = test system: P. aeruginosa IFO12689; test: as above; type: cell-based; settings: Pseudomonas aeruginosa; P. aeruginosa IFO12689, Gram -, 10^6 cells/ml; read-out: Minimum inhibitory concentration for growth
[19] = test system: S. enteritidis IID604; test: as above; type: cell-based; settings: Salmonella enterica; S. enteritidis IID604, Gram -, 10^6 cells/ml; read-out: Minimum inhibitory concentration for growth
[20] = test system: C. freundii IID976; test: as above; type: cell-based; settings: Citrobacter freundii; C. freundii IID976, Gram -, 10^6 cells/ml; read-out: Minimum inhibitory concentration for growth
[21] = test system: S. pneumoniae type III; test: as above; type: cell-based; settings: Streptococcus pneumoniae, Gram +, 10^6 cells/ml, read-out: Minimum inhibitory concentration for growth
[22] = test system: P. aeruginosa V-1; test: as above; type: cell-based; settings: Pseudomonas aeruginosa, V1; P. aeruginosa V-1, Gram -, 10^6 cells/ml; read-out: Minimum inhibitory concentration for growth

SMILES	MIC [1] [µg/mL]	MIC [2] [µg/mL]	MIC [3] [µg/mL]	MIC [4] [µg/mL]	MIC [5] [µg/mL]	ED50 [6] [mg/kg]	ED50 [7] [mg/kg]	MIC [8] [µg/mL]	MIC [9] [µg/mL]	MIC [11] [µg/mL]	MIC [13] [µg/mL]	MIC [14] [µg/mL]	MIC [16] [µg/mL]	further results
COc1c(N2C[C@@H](C)[C@@H](N)C2)c(F)cc2c(=O)c(C(=O)O)cn(C3CC3)c12.Cl [Example 35, 7-[3(R)-amino-4(R)-methyl-1-pyrrolidinyl]-1-cyclopropyl-6-fluoro-1,4-dihydro-8-methoxy-4-oxo-3-quinolinecarboxylic acid hydrochloride]	0.2	0.05	0.05	0.2	0.2	2	1.11	0.2	0.025	0.05	0.025	0.05	0.025	MIC [10]: 1.56 µg/mL; MIC [12]: 0.025 µg/mL; MIC [15]: 0.2 µg/mL; MIC [17]: 0.025 µg/mL; MIC [18]: 1.56 µg/mL
COc1c(N2C[C@@H](N)[C@@H](C)C2)c(F)cc2c(=O)c(C(=O)O)cn(C3CC3)c12 [Example 34, 7-[3(S)amino-4(S)-methyl-1-pyrrolidinyl]-1-cyclopropyl-6-fluoro-1,4-dihydro-8-methoxy-4-oxo-3-quinolinecarboxyic acid hydrochloride]	0.2	0.025	0.05	0.2	0.2	1.39	0.26	0.2	0.025	0.05	0.025	0.025	0.025	MIC [19]: 0.05 µg/mL; MIC [20]: 0.05 µg/mL; MIC [21]: 0.05 µg/mL; MIC [22]: 0.2 µg/mL
